Values after ≈ are worked out from the molar mass of the structure shown. Read-outs that look alike come from different tables or passages of the source.
What was measured:
[1] = In-vivo absorption test, serum concentration after oral administration (bioassay); design: species or system Wistar type rat (male); conditions: 50 mg/kg, fasted male Wistar rat, bioassay with Bacirus cereus S1101, read-out: Blood concentration / Serum concentration; for concentration at 1 h: 1 hr after oral administration; for concentration at 2 h: 2 hr after oral administration; for concentration at 4 h: 4 hr after oral administration
S. aureus 209 P-JC = test: In-vitro antibacterial activity test, minimum growth inhibitory concentration (MIC), S. aureus; assay type: cell-based; conditions: Staphylococcus aureus, 209PJC, read-out: Minimum growth inhibitory concentration
P. mirabilis IFO 3849 = test: In-vitro antibacterial activity test, minimum growth inhibitory concentration (MIC), P. mirabilis; assay type: cell-based; conditions: Proteus mirabilis
[2] = IFO3849, P. mirabilis IFO 3849, read-out: Minimum growth inhibitory concentration

| concentration at 1 h [1] | concentration at 2 h [1] | concentration at 4 h [1] | Compound | MIC (S. aureus 209 P-JC) | MIC (P. mirabilis IFO 3849; IFO3849, read-out: Minimum growth inhibitory concentration) | MIC (S. aureus 209 P-JC; S. aureus 209 P-JC) | MIC (P. mirabilis IFO 3849; [2]) |
| --- | --- | --- | --- | --- | --- | --- | --- |
|  |  |  | Nc1nc(/C(=N/O)C(=O)NC2C(=O)N3C(C(=O)O)=C(/C=C\c4cnns4)CSC23)cs1 (stereo not shown) [Example 21] |  |  | 0.2 µg/mL (≈ 0.417 µM) | 0.39 µg/mL (≈ 0.813 µM) |
|  |  |  | C=CC1=C(C(=O)O)N2C(=O)C(NC(=O)/C(=N\OCC(=O)O)c3csc(N)n3)C2SC1 (stereo not shown) [A, reference compound] |  |  | 12.5 µg/mL (≈ 27.6 µM) | ≤ 0.025 µg/mL |
|  |  |  | Cc1snnc1/C=C\C1=C(C(=O)[O-])N2C(=O)C(NC(=O)/C(=N\O)c3csc(N)n3)[C@H]2SC1.[Na+] (stereo partly shown) [Example 18, sodium 7-[(Z)-2-(2-aminothiazol-4-yl)-2-hydroxyiminoacetamido]-3-[(Z)-2-(5-methyl-1,2,3-thiadiazol-4-yl)vinyl]-3-cephem-4-carboxylate] |  |  | 0.2 µg/mL | 0.39 µg/mL |
| 26600 ng/mL | 37800 ng/mL | 26700 ng/mL | CCOC(=O)OC(C)OC(=O)C1=C(/C=C\c2csnn2)CSC2C(NC(=O)/C(=N\O)c3csc(N)n3)C(=O)N12 (racemic) [Example 22, DL-1-ethoxycarbonyloxyethyl 7-[(Z)-(2-aminothiazol-4-yl)-2-hydroxyiminoacetamido]-3-[(Z)-2-(1,2,3-thiadiazol-4-yl)vinyl]-3-cephem-4-carboxylate] |  |  |  |  |
| 11300 ng/mL | 9800 ng/mL | 5800 ng/mL | CC(C)(C)C(=O)OCOC(=O)C1=C(/C=C\c2csnn2)CS[C@@H]2C(NC(=O)/C(=N\O)c3csc(N)n3)C(=O)N12 (stereo partly shown) [Example 19, pivalyloxymethyl 7-[(Z)-(2-aminothiazol-4-yl)-2-hydroxyiminoacetamido]-3-[(Z)-2-(1,2,3-thiadiazol-4-yl)vinyl]-3-cephem-4-carboxylate] |  |  |  |  |
|  |  |  | Cc1nnsc1/C=C\C1=C(C(=O)[O-])N2C(=O)C(NC(=O)/C(=N\O)c3csc(N)n3)[C@H]2SC1.[Na+] (stereo partly shown) [Example 14, sodium 7-[(Z)-2-(2-aminothiazol-4-yl)-2-hydroxyiminoacetamido]-3-[(Z)-2-(4-methyl-1,2,3-thiadiazol-5-yl)vinyl]-3-cephem-4-carboxylate] |  |  | 0.1 µg/mL | 0.39 µg/mL |
| 72100 ng/mL | 56600 ng/mL | 33400 ng/mL | CC(=O)OC(C)OC(=O)C1=C(/C=C\c2csnn2)CSC2C(NC(=O)/C(=N\O)c3csc(N)n3)C(=O)N12 (racemic) [Example 23, DL-1-acetyloxyethyl 7-[(Z)-2-(2-aminothiazol-4-yl)-2-hydroxyiminoacetamido]-3-[(Z)-2-(1,2,3-thiadiazol-4-yl)vinyl]-3-cephem-4-carboxylate] |  |  |  |  |

| Compound | concentration at 1 h [1] | concentration at 2 h [1] | concentration at 4 h [1] | MIC (S. aureus 209 P-JC) | MIC (P. mirabilis IFO 3849; IFO3849, read-out: Minimum growth inhibitory concentration) | MIC (S. aureus 209 P-JC; S. aureus 209 P-JC) | MIC (P. mirabilis IFO 3849; [2]) |
| --- | --- | --- | --- | --- | --- | --- | --- |
| Nc1nc(/C(=N/O)C(=O)NC2C(=O)N3C(C(=O)[O-])=C(/C=C\c4csnn4)CS[C@H]23)cs1.[Na+] (stereo partly shown) | 4800 ng/mL | 6000 ng/mL | 6000 ng/mL | ≤ 0.025 µg/mL | 0.1 µg/mL |  |  |
